Measured values: US9801371B2, “Self-assembling polymer particle release system” (priority 2010, dated 2017)
Values joined by “and” are separate entries in the source; they are usually repeats but may differ in a detail not shown here. Identical values can stand only once. Like-named read-outs stand apart in the source and are kept apart here.

Experiments:
[1] = Filter paper test: ten 10-ml water washings, UV analysis of AI washed through; format: physicochemical; details: for R (rating factor, number of washings to deplete the AI): ten 10-ml water washings; for mobility on filter paper or soil: washed with several 10 ml aliquots of water
Text: All of the polymers in this set of experiments were combined with the AI at a 70% AI by weight to 30% polymer by weight concentrations. […] The filter paper samples were applied to a slightly wet Buchner funnel to set the paper evenly and then ten 10-ml aliquots of de-ionized (DI) water were suctioned through the filter paper. Ultraviolet light (UV) analysis for each of the 10-ml fractions was used to determine the absorption of the AI (264 nm) washed through the filter paper and recorded as absorption versus each individual 10-ml wash.
The control for these systems was evaluated by placing methylene chloride solutions of the AI alone or the polymer alone onto the filter paper, drying overnight, and washing with ten 10-ml aliquots of DI water.
The AI was dry ground (mortar and pestle) with urea-formaldehyde flower foam as the cage material [commercial product (Foliage Fresh)] where the ratio of AI to flower foam was 70%/30% by weight. This mixture then was tumbled-coated with an organic solvent solution of a hydrophobic polymer (paraffin wax/hexane; polystyrene/toluene; silicone oil/toluene) in a round bottom flask. […] Small amounts (0.07 g) of the powder were placed on the filter paper and subsequently washed with ten 10-ml aliquots of DI water and analyzed in a similar manner as previously described.
Liquid samples of the AI-polymer combinations and AI control samples were applied to filter paper (Whatman #2) and dried for 24 hours at room temperature. The filter paper containing the AI-polymer combination or the AI control samples were placed in a Buchner funnel under water aspiration vacuum conditions, while ten 10-ml aliquots of water were applied to the top of the filter paper containing the AI-polymer or AI control material, which was then sucked through the filter paper and collected in the receiving flask that holds the funnel-vacuum attachment.
After each 10-ml aliquot of water was suctioned through the filter paper containing the sample, the suctioned solution then was removed and analyzed with a UV spectrometer for any AI that went through the water washing process. The ten 10-ml sequential washings were a simulation of how an AI applied to soil would remain on the soil and migrate through the soil under a rain environmental exposure condition.
Dry 100% solid samples were placed on the filter paper directly and subsequently washed with ten 10-ml aliquots in a similar manner as the liquid samples that were dried after placement on the filter paper.
Various concentrations of the AI's were dissolved in water or water and a co-solvent and analyzed at 254 nm or other UV/visible regions of the spectrum in order to establish a standard calibration curve of absorbance versus AI concentration.

[2] = Soil column test: topsoil column washed with ten 10-ml aliquots of water; format: physicochemical
Description: The soil column was prepared by cutting off the tip of a 15 ml VWR brand CAT, No. 20171-036 polypropylene centrifuge tube leaving approximately a ⅛-inch opening, which was filled with cotton to prevent the soil from pouring out the bottom. The cotton block was 0.5-inch thick, which held unpacked 3 inches of Nature's topsoil from the Michigan Peat Co., (Oakland Nursery). The topsoil was sieved ten times through a #7 metal screen sieve to remove large debris before filling the tubes.
A 50-μl sample of the mixture was applied to the filter paper and dried while a 200-μl sample was applied to the top of the soil columns and dried before washing with ten 10-ml aliquots of water.

[3] = cited from earlier work
[4] = cited from earlier work; remark: listed apart in the source
[5] = cited from earlier work; remark: listed apart in the source
sugar beet leaves = details: amorphous wax surface; cited from earlier work
kohlrabi leaves = details: fine crystalline wax surface; cited from earlier work
[6] = filter paper, 10-ml water washing 6
[7] = filter paper, 10-ml water washing 7
[8] = filter paper, 10-ml water washing 8
[9] = filter paper, 10-ml water washing 9
[10] = filter paper, 10-ml water washing 10, * = not all released after 10 washings
[11] = Table 26, USDA Pesticide Properties Database

With `CC(C)N.O=C(O)COc1ccc(Cl)cc1Cl` [2,4-D Amine Salt (Control)] as the compound, how does the “R Values” ([1]; R line of the washing table, filter paper) read?
The value was 2.

And the “% released” value ([1]; washing 1, sample applied to filter paper and dried)?
The value was 94%.

And the “% released” value ([1]; washing 2, sample applied to filter paper and dried)?
Its value is 6%.

And the “% released” value ([1]; washing 4, sample applied to filter paper and dried)?
Its value is 0%.

And the “% released” value ([1]; washing 5, sample applied to filter paper and dried)?
Its value is 0%.

What about the “% released” value ([1]; washing 6, sample applied to filter paper and dried) of the same compound?
Its value is 0%.

And the “% released” value ([1]; washing 7, sample applied to filter paper and dried)?
The value was 0%.

And the “% released” value ([1]; washing 8, sample applied to filter paper and dried)?
Its value is 0%.

What about the “% released” value ([1]; washing 9, sample applied to filter paper and dried) of the same compound?
Its value is 0%.

And the “% released” value ([1]; washing 10, * = not all of the sample was released after 10 washings)?
Its value is 0%.

And the “% released” value ([1]; washing 33, sample applied to filter paper and dried)?
Its value is 0%.

What does the source list for `CC(C)N.O=C(O)COc1ccc(Cl)cc1Cl` [2,4-D Amine Salt]?
number of 10-ml water washes to pass through / be depleted from the filter paper [1]: 1-2 washes; controlled-release properties (in words) ([1]; filter paper, 10-ml aliquots of water): no control release capabilities; % released ([1]; filter paper, 10-ml water washing 1): 94%; % released ([1]; filter paper, 10-ml water washing 1, listed as 2,4-D Salt): 86%; % released ([1]; filter paper, 10-ml water washing 2): 6%; % released ([1]; filter paper, 10-ml water washing 2, listed as 2,4-D Salt): 14%; % released ([1]; filter paper, 10-ml water washing 3): 0%; % released ([1]; filter paper, 10-ml water washing 4): 0%; % released ([1]; filter paper, 10-ml water washing 5): 0%; % released [1, 6]: 0%; % released [1, 7]: 0%; % released [1, 8]: 0%; % released [1, 9]: 0%; % released [1, 10]: 0%; R (rating factor, number of washings to deplete the AI) ([1]; filter paper): 2; % released ([2]; 10-ml water washing 1): 32%; % released ([2]; 10-ml water washing 2): 26%; % released ([2]; 10-ml water washing 3): 20%; % released ([2]; 10-ml water washing 4): 13%; % released ([2]; 10-ml water washing 5): 9%; % released ([2]; 10-ml water washing 6): 0%; % released ([2]; 10-ml water washing 7): 0%; % released ([2]; 10-ml water washing 8): 0%; % released ([2]; 10-ml water washing 9): 0%; % released ([2]; 10-ml water washing 10): 0%; R (rating factor, number of washings to deplete the AI) ([2]; ten 10-ml water washings): 5

For `COc1c(Cl)ccc(Cl)c1C(=O)O` [Dicamba], which KOC [3, 11] is on record?
The KOC was 2 mg/g.

What about the KOC ([3]; Tables 21-25) of the same compound?
Its KOC is 12.

And the “Water Solubility” value [4]?
The value was 250000 µg/mL.

What about the “Log P” value [5] of the same compound?
The value was −1.88.

For `CN(C)C(=O)Nc1ccccc1` [Fenuron], which KOC ([3]; Tables 21-25) is on record?
The KOC was 42.

What about the “Water Solubility” value [4] of the same compound?
The value was 3850 µg/mL.

What about the “Log P” value [5] of the same compound?
The value was 0.98.

For `O=C(O)CNCP(=O)(O)O` [Glyphosate], which “capability to penetrate leaf surfaces” value (sugar beet leaves) is on record?
The value was “very little capability to penetrate leaf surfaces”.

What about the “capability to penetrate leaf surfaces” value (kohlrabi leaves) of the same compound?
Its value is “very little capability to penetrate leaf surfaces”.

With `CC(C)C1(C)N=C(c2ncccc2C(=O)O)NC1=O` (stereo not shown) [Imazapyr] as the compound, how does the “% released” value ([1]; filter paper, 10-ml water washing 1, listed as AI Control) read?
The value was 49%.

What about the “% released” value ([1]; filter paper, 10-ml water washing 1, listed as IMI Acid) of the same compound?
Its value is 41%.

And the “% released” value ([1]; filter paper, 10-ml water washing 1, listed as IMI acid alone)?
The value was 28%.

What about the “% released” value ([1]; filter paper, 10-ml water washing 2, listed as AI Control) of the same compound?
The value was 47% and 49%.

And the “% released” value ([1]; filter paper, 10-ml water washing 2, listed as IMI Acid)?
Its value is 39% and 37%.

What about the “% released” value ([1]; filter paper, 10-ml water washing 2, listed as IMI acid alone) of the same compound?
Its value is 30%.

And the “% released” value ([1]; filter paper, 10-ml water washing 3, listed as AI Control)?
Its value is 4% and 2%.

And the “% released” value ([1]; filter paper, 10-ml water washing 3, listed as IMI Acid)?
The value was 14%.

And the “% released” value ([1]; filter paper, 10-ml water washing 3, listed as IMI acid alone)?
Its value is 25%.

What about the “% released” value ([1]; filter paper, 10-ml water washing 4, listed as AI Control) of the same compound?
The value was 0%.

What about the “% released” value ([1]; filter paper, 10-ml water washing 4, listed as IMI Acid) of the same compound?
The value was 6% and 5%.

What about the “% released” value ([1]; filter paper, 10-ml water washing 4, listed as IMI acid alone) of the same compound?
Its value is 13%.

And the “% released” value ([1]; filter paper, 10-ml water washing 5, listed as AI Control)?
The value was 0%.

And the “% released” value ([1]; filter paper, 10-ml water washing 5, listed as IMI Acid)?
Its value is 0%.

And the “% released” value ([1]; filter paper, 10-ml water washing 5, listed as IMI acid alone)?
The value was 4%.

And the “% released” value [1, 6]?
Its value is 0%.

And the “% released” value [1, 7]?
The value was 0%.

What about the “% released” value [1, 8] of the same compound?
The value was 0%.

What about the “% released” value [1, 9] of the same compound?
Its value is 0%.

What about the “% released” value [1, 10] of the same compound?
Its value is 0%.

What about the “R (rating factor, number of washings to deplete the AI)” value ([1]; filter paper, listed as AI Control) of the same compound?
The value was 3.

And the “R (rating factor, number of washings to deplete the AI)” value ([1]; filter paper, listed as AI control)?
Its value is 3.

What about the “R (rating factor, number of washings to deplete the AI)” value ([1]; filter paper, listed as IMI Acid) of the same compound?
Its value is 4.

What about the “R (rating factor, number of washings to deplete the AI)” value ([1]; filter paper, listed as IMI acid alone) of the same compound?
The value was 5.

Which results are given for `CON(C)C(=O)Nc1ccc(Cl)c(Cl)c1` [Linuron]?
KOC [3, 11]: 400 mg/g; KOC ([3]; Tables 21-25): 620; Water Solubility [4]: 63.8 µg/mL

For `CCCCN(C)C(=O)Nc1ccc(Cl)c(Cl)c1` [Neburon], which KOC ([3]; Tables 21-25) is on record?
Its KOC is 2500.

What about the “Log P” value [5] of the same compound?
Its value is 3.8.

With `CC(COc1ccc(Oc2ccccc2)cc1)Oc1ccccn1` (stereo not shown) [Pyriproxyfen] as the compound, how does the “% released” value ([1]; filter paper/soil release system, washing 1 (first line)) read?
Its value is 0%.

And the “% released” value ([1]; filter paper/soil release system, washing 3)?
The value was 0%.

And the “% released” value ([1]; filter paper/soil release system, washing printed 1 (second line))?
The value was 0%.

What about the “mobility on filter paper or soil” value [1] of the same compound?
The value was “no mobility”.

What about the “mobility on filter paper or soil” value ([1]; listed as PPF) of the same compound?
Its value is “did not move with any of the water washes”.

And the Koc ([3]; clay-loam soils)?
The Koc was 58,000.

Which KOC ([3]; Tables 21-25) does the source give for `Cc1nn(-c2cc(NS(C)(=O)=O)c(Cl)cc2Cl)c(=O)n1C(F)F` [Sulfentrazone] here?
The KOC was 43.

For `COC(=O)c1ccccc1S(=O)(=O)NC(=O)Nc1nc(C)cc(C)n1` [Sulfometuron-Methyl], which KOC ([3]; Tables 21-25) is on record?
Its KOC is 85.

With `CNC(=O)N(C)c1nnc(C(C)(C)C)s1` [Tebuthiuron] as the compound, how does the KOC [3, 11] read?
The KOC was 80 mg/g.

For `CCOP(=S)(OCC)SCSC(C)(C)C` [Terbufos], which KOC [3, 11] is on record?
The KOC was 500 mg/g.

Which KOC ([3]; Tables 21-25) does the source give for `CCNc1nc(NC(C)(C)C)nc(SC)n1` [Terbutryn] here?
The KOC was 2000.

With `c1ccc2[nH]c(-c3cscn3)nc2c1` [Thiabendazole] as the compound, how does the KOC ([3]; Tables 21-25) read?
Its KOC is 2500.

And the “Water Solubility” value [4]?
Its value is 30 µg/mL.

What about the “Log P” value [5] of the same compound?
Its value is 2.39.

With `O=C(Nc1ccccc1)Nc1cnns1` [Thidiazuron] as the compound, how does the KOC ([3]; Tables 21-25) read?
Its KOC is 742.

For `CC(C)(C)C(O)C(Oc1ccc(Cl)cc1)n1cncn1` (stereo not shown) [Triadimenol], which KOC ([3]; Tables 21-25) is on record?
Its KOC is 273.

Which KOC ([3]; Tables 21-25) does the source give for `COC(=O)c1ccccc1S(=O)(=O)NC(=O)N(C)c1nc(C)nc(OC)n1` [Tribenuron-Methyl] here?
The KOC was 31.

With `Cc1cccc2sc3nncn3c12` [Tricyclazole] as the compound, how does the KOC ([3]; Tables 21-25) read?
The KOC was 169.

With `COC(=O)c1cccc(C)c1S(=O)(=O)NC(=O)Nc1nc(OCC(F)(F)F)nc(N(C)C)n1` [Triflusulfuron-Methyl] as the compound, how does the KOC ([3]; Tables 21-25) read?
The KOC was 40.
